Earlier results as cited in PMC8008885 (Journal of Enzyme Inhibition and Medicinal Chemistry, 2021).

Tested on: HD transgenic mice
Conditions: cited from earlier work

Molecule | H3K9 trimethylation | SETDB1 gene expression | behaviour and neuropathological phenotype | neuroprotective effects by suppressing elevated SETDB1 and H3K9me3 level
NCCSSCCN [cystamine] | reduced | down-regulates | improved | 
COC(=O)[C@@H]1c2cc3c(c(O)c2[C@@H](O[C@@H]2O[C@@H](C)[C@H](OC)[C@@](C)(OC)[C@H]2OC)C[C@]1(C)O)C(=O)c1c(O)cc2c(c1C3=O)O[C@@H]1O[C@@]2(C)[C@H](O)[C@@H](N(C)C)[C@@H]1O [nogalamycin] |  |  |  | improved neuroprotective effects
mithramycin | reduced | down-regulates | improved | 
